Reference: US12063914B2, “DNA sequence that increases odorant receptor representation in the olfactory system” (Research Foundation of the City University of New York, priority 2015, dated 2024)

Columns and labels:
[1] = target: T1, M71 OR (Mus musculus, UniProt Q60893); experiment: In vivo synaptophluorin (SpH) imaging of odor-evoked glomerular activity in 4•M71Cα mice; details: for glomerular activity (in vivo SpH imaging): 4•M71Cα animals, vapor phase, odor dilutions 0% to 15%; for average highest (dF/F)max: hemizygous 4•M71Cα animals, ACP at 1.77 uM, 24dMACP at 0.66 uM; for average highest (dF/F)max / highest efficacy [(dF/F)max]: 4MACP at 0.69 uM; for efficacy [(dF/F)max]: 0.71 uM; for efficacy [average (dF/F)max]: delivered at the same concentration, ˜0.70 uM; for response [(dF/F)max] at highest concentration delivered: 2.66 uM; for highest efficacy [(dF/F)max]: homozygous 4•M71Cα animals, ACP at 2.66 uM, 24dMACP at 0.46 uM
T1 construct: the increase of OSNs expressing the M71 OR results in the coalescence of labeled axons; expressed in transfected cells; host or cells: olfactory sensory neurons of living transgenic mice (4•M71Cα, 5•M71Cα), made by pronuclear injection of the M71 minigene
T1 sequence (Q60893 1-309): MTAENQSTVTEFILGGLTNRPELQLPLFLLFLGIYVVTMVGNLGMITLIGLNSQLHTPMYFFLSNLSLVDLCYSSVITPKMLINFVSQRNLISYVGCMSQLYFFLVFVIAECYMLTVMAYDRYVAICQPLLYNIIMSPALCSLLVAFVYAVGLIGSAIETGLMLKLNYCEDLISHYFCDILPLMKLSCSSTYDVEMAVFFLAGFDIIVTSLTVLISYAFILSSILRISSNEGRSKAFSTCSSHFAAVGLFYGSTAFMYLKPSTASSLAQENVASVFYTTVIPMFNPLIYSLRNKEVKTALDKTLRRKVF
Text: Because the M71 OR is dorsally expressed in the olfactory bulb, any cloned OR using the M71 transgenic backbone will coalesce its axons onto dorsally located glomeruli, which makes them accessible for optical imaging. Optical imaging was therefore used to functionally characterize transgenic M71 projections in the OB. To examine their functional properties odor-evoked activity was imaged from the OBs of mice expressing the genetically encoded activity reporter SpH in all mature OSNs. Simultaneously recordings were obtained from mice that are either hemizygous or homozygous for 4•M71Cα (gene-targeted M71-GFP is out crossed) and heterozygous for SpH and identify red M71 glomeruli. Seven different M71-selective ligands were used from ex vivo analysis of genetically defined M71 OSNs in gene-targeted mice: three of these ligands produced responses by SpH imaging: Acetophenone (ACP), 4-methyl acetophenone (4MACP) and 2,4-dimethyl acetophenone (24dMACP) when delivered at different odor dilutions varying between 0% and 15%. The maximum change in fluorescence [(dF/F)max] per odor concentration was calculated for each compound over a 14 s trial period having a pre-odor (3 s), odor (4 s) and post-odor (4 s) acquisition. dF/F values for all glomeruli were calculated with a standardized 50 μm window, which is fully contained in all imaged glomeruli of both hemi and homo 4•M71Cα animals. (FIG. 2A, FIG. 2B and FIG. 2C: Each data point represents the average (dF/F). of 4-16 glomeruli imaged). […] All imaged mice are heterozygous for omp-SpH.
Olfactometry: Odors (purchased form Sigma Aldrich) were delivered using a custom built olfactometer controlled by an Arduino board with custom shields operating Teflon solenoids (Neptune Research) and connected to two Mass Flow Controllers (Alicat Scientific, Inc) to dilute the clean air (N2, max flow is 2 Lpm) and to dilute the odorized air (max flow is 300 SCCM). Nitrogen (N2) was used as the vapor carrier to avoid oxidation. Odor concentrations are expressed a % dilutions of saturated vapor and as molar saturated vapor concentration (μM s.v.), calculated using published vapor pressures at 25° Celsius (US EPA, Estimation Programs Interface Suite, v 4.0. Flow diluted odors were delivered at 2 Lpm mixed prior to the delivery site with air odorized with varying dilutions of odorant taken from the saturated headspace of pre-cleaned amber vials with white polypropylene closures and septum (J. G. Finneran) containing 99% pure odorants. To avoid contamination of the olfactometer, odorized air was never passed through the Teflon valves. Instead, odors were mixed with N2 in T-shaped mixing chambers (Neptune Research) and delivered to the animal's nose using an arduino controlled vacuum system. […] Output of the olfactometer was calibrated using the tracer odor Pinene and a photoionization detector (PID; Aurora Scientific).
In vivo SpH Imaging: Mice were anesthetized using Ketamine (100 mg/kg)/Xylazin (5 mg/kg) and maintained with Isoflurane (2.5% in 02) and immobilized using a stereotactic head holding device (Narishige, Inc.). Optical signals for SpH and mCherry were recorded using an ANDOR Neo 5.5 sCMOS camera connected to a NIKON AZ100 epifluorescence microscope (NIS Elements) with a 4× objective (numerical aperture 0.4). Excitation wavelengths of 475 nm for SpH and 575 nm for mCherry and emission of 520 nm for SpH and 635 nm for mCherry were used to obtain images of the dorsolateral bulb through thinned skull overlaying the bulb of a freely breathing animal. Each imaging trial consisted of a pre-odor (3 s), odor (4 s) and post-odor (4 s) acquisition, with a total acquisition time per trial of 14 s (including 3 s of valve switch delay). Using serial code, the arduino controlling the olfactometer was integrated in the NIS Elements software, so that the entire image acquisition sequence and flow-diluted odor delivery is controlled by the microscope software. […]

[2] = at 25° C.; cited from earlier work
[3] = target: T2, M71 (Mus musculus, UniProt Q60893); details: previous ex vivo data; liquid phase; cited from earlier work
T2 construct: from ex vivo analysis of genetically defined M71 OSNs in gene-targeted mice; host or cells: dendritic knobs of M71-expressing olfactory sensory neurons from gene-targeted mice
T2 sequence (Q60893 1-309): T1 sequence (Q60893 1-309)

[4] = target: T3, human OR1A1 receptor (Homo sapiens, UniProt Q9P1Q5); experiment: Two-bottle behavioral avoidance task with (−)-Carvone in 5•OR1A1Cβ mice; assay type: in vivo, mouse
T3 construct: expressed in transfected cells; host or cells: olfactory sensory neurons of living 5•OR1A1Cβ hemizygous transgenic mice
T3 sequence (Q9P1Q5 1-309): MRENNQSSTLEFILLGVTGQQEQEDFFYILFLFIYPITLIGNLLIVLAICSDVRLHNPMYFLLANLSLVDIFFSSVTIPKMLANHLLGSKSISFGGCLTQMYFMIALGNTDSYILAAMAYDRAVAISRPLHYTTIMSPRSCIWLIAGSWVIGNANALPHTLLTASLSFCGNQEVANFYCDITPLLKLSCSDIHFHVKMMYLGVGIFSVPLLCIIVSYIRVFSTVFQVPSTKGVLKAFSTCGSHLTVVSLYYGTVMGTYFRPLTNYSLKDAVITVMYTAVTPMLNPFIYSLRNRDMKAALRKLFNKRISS
Text: To further evaluate the versatility of this platform, the probability of choice of expression of a human OR was increased by cloning OR1A1 into the 5×21 M71 transgenic backbone. […] Again omp levels were not changed. Clearly, the representation of some ORs must be decreased to explain this equilibrium. In the 4•M71Cα homo animals, a mere 2-log increase in M71 RNA levels leads to a detectable 0.3-log change in threshold. Therefore, without wishing to be bound to any particular theory, it is believed that further increases in the neuronal representation of specific ORs may decrease detection thresholds even more. However, a delicate balance must exist between cell number and sensitivity. This hypothesis was tested using the established two-bottle behavioral avoidance task with the 5•OR1A1Cβ mice (FIG. 3B). Conditioning of 5•OR1A1Cβ hemi animals (n=12) was performed and their WT littermates (n=7) to water containing a 10-4 dilution of (−)-Carvone, a known OR1A1 ligand. For four consecutive days, animals were given the choice between plain water and water with decreasing (10-4, 10-6, 10-7 and 10-8) dilutions of (−) Carvone (FIG. 3C). Both groups (WT and Hemi) show clear aversion towards a 10^−4 dilution of (−)-Carvone (AVG PI WT=6.17% and AVG PI hemi=10.26%), reflecting successful conditioning. Both WT (AVG PI=55.52%) and Hemi (AVG PI=47.88%) cannot detect a 10^−8 dilution of (−)-Carvone. At 10^−6 and 10^−7 however, there is a clear difference in detection between WT and Hemi (10^−6: AVG PI WT=27.65% vs. AVG PI Hemi=11.41, Student's T-test p<0.01 and 10^−7: AVG PI WT=53.88% vs. AVG PI Hemi=30.24, Student's T-test p<0.05). […] These findings indicate that expressing OR1A1 in about 40% of the OSNs translates into a 2-log difference in (−)-Carvone detection thresholds.
Olfactory behavior test: A two-bottle discrimination test was performed as previously described. Since the mice are tested for the ability to detect a single odor in drinking water at increasingly lower concentrations, this discrimination assay is also considered a detection threshold test. Mice 8 weeks old were individually housed and given food ad libitum but restricted access to saccharin-phthalic acid solution (2.1×10^−2 M sodium saccharin and 10^−3M phthalic acid pH 6.5) for 1 h twice a day for two days before the assay begins. This ensures mice would commence drinking the solution during the conditioning. On day 3 (conditioning day) mice are exposed to sodium saccharine phthalic acid (SSPA) solution with 1 dilution of odorized water for 10 minutes. Immediately after, they are injected with lithium chloride intraperitoneally (15 μl/g body weight of a 0.6 M solution) to induce the aversive malaise and lethargy state. After two hours mice are returned to their home cage and given access to two bottles of drinking water; they are given the choice between SSPA solution containing a 10^−4 dilution of the odor versus the non-odorized SSPA solution. During the following 3 days, every 24 hours, the location of the bottles is reversed and the concentration of the odorized solution is decreased to 10^−6, 10^−7 and 0.5×10^−6, respectively. Every day both bottles are weighed to determine the amount of liquid consumed. A preference index was calculated as the amount of odorized solution consumed divided by the total amount of water solution consumed for each mouse for every 24 hour test period at each odor concentration. Student's t test was performed to test statistical significance, assuming two-tailed distribution and two-sample unequal variance. Values are mean±SEM and are plotted on a LOG scale.

SMILES: COc1ccc(C(C)=O)cc1 [4-metoxyacetophenone]
- glomerular activity (in vivo SpH imaging) [1]: does not show glomerular activation
- saturated vapor pressure (Ps) [2]: 0.0133 mmHg
- elicit a M71 response ex vivo [3]: did
- ex vivo responder grade [3]: high responder

SMILES: CC(=O)c1ccccc1 [ACP, Acetophenone]
- glomerular activity (in vivo SpH imaging) [1]: observed
- average highest (dF/F)max [1]: 3.49%
- efficacy [(dF/F)max] ([1]; hemizygous animals): 0.73%
- efficacy [average (dF/F)max] ([1]; hemizygous animals): 0.73%
- response [(dF/F)max] at highest concentration delivered ([1]; heterozygous (hemizygous) animals): 3.46%
- highest efficacy [(dF/F)max] [1]: 4.57%
- efficacy [(dF/F)max] ([1]; homozygous animals): 3.00%
- response [(dF/F)max] at highest concentration delivered ([1]; homozygous animals): 4.57%
- saturated vapor pressure (Ps) [2]: 0.3260 mmHg
- elicit a M71 response ex vivo [3]: did

SMILES: O=Cc1ccccc1 [benzaldehyde]
- elicit a M71 response ex vivo [3]: did
- ex vivo responder grade [3]: low responder

SMILES: COC(=O)c1ccccc1 [methylbenzoate]
- elicit a M71 response ex vivo [3]: did not

SMILES: NCC(=O)c1ccccc1 [2 amino acetophenone]
- elicit a M71 response ex vivo [3]: did

SMILES: CCc1occc(=O)c1O [ethylmalthol]
- elicit a M71 response ex vivo [3]: did

SMILES: CC(C)[C@@H]1CC[C@@H](C)CC1=O [menthone]
- elicit a M71 response ex vivo [3]: did not

SMILES: C=C(C)C1CC=C(C)C(=O)C1 (single isomer, unassigned; (-)) [(−)-Carvone]
- difference in detection thresholds ([4]; 5•OR1A1Cβ hemi vs WT): 2 log
- AVG PI ([4]; 5•OR1A1Cβ hemi, 10^−4 dilution): 10.26%
- AVG PI ([4]; 5•OR1A1Cβ hemi, 10^−6 dilution): 11.41
- AVG PI ([4]; 5•OR1A1Cβ hemi, 10^−7 dilution): 30.24
- AVG PI ([4]; 5•OR1A1Cβ hemi, 10^−8 dilution): 47.88%
- AVG PI ([4]; WT littermates, 10^−4 dilution): 6.17%
- AVG PI ([4]; WT littermates, 10^−6 dilution): 27.65%
- AVG PI ([4]; WT littermates, 10^−7 dilution): 53.88%
- AVG PI ([4]; WT littermates, 10^−8 dilution): 55.52%

SMILES: CC(=O)c1ccc(C)cc1 [4MACP, 4-methyl acetophenone]
- glomerular activity (in vivo SpH imaging) [1]: observed
- average highest (dF/F)max [1]: 4.48%
- efficacy [average (dF/F)max] ([1]; hemizygous animals): 4.48%
- highest efficacy [(dF/F)max] [1]: 3.82%
- average efficacy (of all concentrations and odors) ([1]; homozygous animals): 3.83%
- saturated vapor pressure (Ps) [2]: 0.0849 mmHg
- elicit a M71 response ex vivo [3]: did
